Read-outs that look alike come from different tables or passages of the source.
How the values were obtained:
JAK2 JH1 WT (T842-G1132) = biological target: T1, JAK2 JH1 WT (T842-G1132) (Homo sapiens, UniProt O60674); assay: Surface Plasmon Resonance (SPR) binding assay, JAK2 JH1 domain
T1 construct: *JAK2 JH1 WT (T842-G1132) N-His60-avi-TEV; His6 (N); TEV cleavage site (N); purchased Biortus
Protocol: Selected compounds of the present disclosure were tested in a Surface Plasmon Resonance (SPR) Assay to measure their binding kinetics and affinity for proteins of interest.
Prepare buffer: 50 mM HEPES pH 7.5, 150 mM NaCl, 0.05% (v/v) Tween, and 10% (v/v) glycerol were combined and pH was adjusted to 7.5, then filtered. 5 mM DTT, was added, and buffer without DMSO was reserved for compound resuspension. 2% (v/v) DMSO was added for assay buffer, and separately 1% DMSO was used to make buffer for resuspending compounds.
Prepare compounds: Using a Bravo liquid handler, 99 μL of 1% (v/v) DMSO assay buffer was added to 1 μL compounds in DMSO.
Run 8K Method: Biotin CAPture (CAP) chip surface was regenerated prior to run by: Inserting CAP chip into Biacore 8K, prime machine with assay buffer with 2% (v/v) DMSO; Setting instrument temperature to 20° C.; Conditioning surface with NaOH/GdnHCl reagents from CAP chip kit (60 seconds, 10 μL/min); and Capturing oligo-Streptavidin (SA) reagent from CAP kit (600 seconds, 1 μL/min), expected capture ˜2500 RU. JAK2 JH1 or JH2 protein was immobilized by preparing a sample of 0.5 uM JH1 or 0.4 uM JH2 protein diluted in assay buffer without DMSO and supplemented with 10 uM of a selected compound of the invention as a stabilizer (370 seconds, 5 uL/min), expected capture ˜1000 RU. Remaining biotin sites on SA were blocked with 1 uM biotin (30 seconds, 20 uL/min), then equilibrated for 1800 seconds at 100 uL/min. Compounds being assayed were run in single cycle kinetics: 4 doses with a top concentration of 5 uM (JH1) or 500 nM (JH2), dilution factor of 3, at 20° C., for a contact time of 60 seconds, and a dissociation time of 300 seconds (JH1) or 1200 seconds (JH2), at a flow rate of 30 uL/min. The surface was completely regenerated after each compound is run, and JH1 or JH2 protein was immobilized fresh prior to each new compound. Data were fitted kinetically with 1:1 binding model using Biacore Insight Evaluation Software.

[1] = tested on: TF1 JAK2 V617F STAT3 reporter; assay: Cellular TF1 STAT3 assay (luciferase reporter), JAK2 V617F; assay type: cell-based; details: read-out: Cell PD-TF1 JAK2 V617F STAT3 (IC50)
Outline: (§1)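 Compounds were dispensed as 1000× DMSO stocks (10 mM top, 1:3 steps), then V617F JAK2 TF1 cells carrying a STAT3 or STAT5 luciferase reporter were added. After 18-20 h at 37 °C, ONE-glo reagent was added and luminescence measured.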

[2] = biological target: T2, JAK2 JH2 WT (V536-D812) [W659A, W777A, F794H solubilizing mutations] (Homo sapiens, UniProt O60674, F794H/W659A/W777A); assay: Surface Plasmon Resonance (SPR) binding assay, JAK2 JH2 domain
T2 construct: **JAK2 JH2 WT (V536-D812) [W659A, W777A, F794H solubilizing mutations]; C-thrombin-avi-His6; thrombin cleavage site (C); His6 (C); purchased Biortus
T2 sequence (O60674 536-812 W659A/W777A/F794H): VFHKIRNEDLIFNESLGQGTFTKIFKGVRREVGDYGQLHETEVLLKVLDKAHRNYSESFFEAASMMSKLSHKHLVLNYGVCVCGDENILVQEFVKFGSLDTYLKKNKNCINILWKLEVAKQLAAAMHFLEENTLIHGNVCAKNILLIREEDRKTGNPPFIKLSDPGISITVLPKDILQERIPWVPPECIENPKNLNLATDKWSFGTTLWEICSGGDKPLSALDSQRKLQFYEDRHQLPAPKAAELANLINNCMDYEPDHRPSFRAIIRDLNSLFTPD
Outline: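 Kinetics came from 1:1 fits of single-cycle runs at 20 °C: four 3-fold dilutions from 5 uM for JH1 or 500 nM for JH2, 60 s association, and 300 s or 1200 s dissociation respectively. Protein was freshly captured per compound in the presence of 10 uM stabilizer compound, with running buffer of pH 7.5 HEPES/NaCl/glycerol/DTT plus 2% DMSO.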

[3] = tested on: TF1 JAK2 V617F STAT5 reporter; assay: Cellular TF1 STAT5 assay (luciferase reporter), JAK2 V617F; assay type: cell-based; details: read-out: Cell PD TF1 V617F STAT5 (IC50)
Outline: as §1

[4] = Homo sapiens, TF-1, TF1 cells, JAK2 V617F

T1 sequence (O60674 842-1132): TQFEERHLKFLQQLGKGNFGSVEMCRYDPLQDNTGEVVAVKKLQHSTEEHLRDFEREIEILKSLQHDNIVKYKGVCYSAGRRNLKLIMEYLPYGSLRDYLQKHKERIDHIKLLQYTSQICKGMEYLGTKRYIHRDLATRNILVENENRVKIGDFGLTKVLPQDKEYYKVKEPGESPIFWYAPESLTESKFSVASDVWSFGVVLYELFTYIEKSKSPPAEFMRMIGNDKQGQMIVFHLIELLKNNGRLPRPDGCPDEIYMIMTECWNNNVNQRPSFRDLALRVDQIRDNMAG

SMILES	Kd (JAK2 JH1 WT (T842-G1132); SPR, JAK2 JH1 domain) [nM]	IC50 ([1]; TF1 JAK2 V617F) [nM]	Kd ([2]; SPR, JAK2 JH2 domain) [nM]	IC50 ([3]; TF1 JAK2 V617F) [nM]	Kd (JAK2 JH1 WT (T842-G1132)) [nM]	IC50 [1, 4] [nM]	Kd [2] [nM]	IC50 [3, 4] [nM]
CNC(=O)c1nnc(NC(=O)C2CC2)cc1Nc1cccc(-c2nnc(C3CN(Cc4ccccn4)C3)o2)c1OC [Compound 156]	5000 to 100000	5000 to 100000	10 to 50	5000 to 100000	–	–	–	–
CNC(=O)c1nnc(NC(=O)C2CC2)cc1Nc1cccc(-c2nnc(C3CN(Cc4cccc(C)n4)C3)o2)c1OC [Compound 157]	5000 to 100000	5000 to 100000	0.01 to 10	5000 to 100000	–	–	–	–
CNC(=O)c1nnc(NC(=O)C2CC2)cc1Nc1cccc(-c2ccc(C(=O)N(C)Cc3cc(C(F)F)ccn3)nc2)c1OC [Compound 158]	5000 to 100000	50 to 500	0.01 to 10	50 to 500	–	–	–	–
CNC(=O)c1nnc(NC(=O)C2CC2)cc1Nc1cccc(-c2ccc(C(=O)N(Cc3cc(C#N)ccn3)OC)nc2)c1OC [Compound 159]	5000 to 100000	50 to 500	0.01 to 10	50 to 500	–	–	–	–
COc1c(Nc2cc(NC(=O)C3CC3)nnc2C(N)=O)cccc1-c1ccc(C(=O)N(C)Cc2cc(C#N)ccn2)nc1 [Compound 220]	–	–	–	–	50 to 500	50 to 500	0.01 to 10	50 to 500
CNC(=O)c1nnc(NC(=O)C2CC2)cc1Nc1cccc(-c2cnn(C3CN(C(C)=O)C3)c2)c1OC [Compound 301]	–	–	–	–	5000 to 100000	5000 to 100000	50 to 500	5000 to 100000
CNC(=O)c1nnc(NC(=O)C2CC2)cc1Nc1cccc(-c2cn(C3CN(Cc4cccc(C#N)n4)C3)nc2COC)c1OC [Compound 328]	–	–	–	–	500 to 5000	50 to 500	0.01 to 10	50 to 500
CNC(=O)c1nnc(NC(=O)C2CC2)cc1Nc1cccc(-c2cn(C3CN(Cc4cccc(C#N)n4)C3)nc2CO)c1OC [Compound 329]	–	–	–	–	500 to 5000	500 to 5000	0.01 to 10	500 to 5000

— patent US20240368122A1, “JAK2 INHIBITORS AND METHODS OF USE THEREOF” (RELAY THERAPEUTICS, INC., priority 2021, published 2024)
